Test results taken from article PMC8213057, “Targeting ALK2: An Open Science Approach to Developing Therapeutics for the Treatment of Diffuse Intrinsic Pontine Glioma” (Journal of Medicinal Chemistry, 2020).

Tests used:
[1] = target: CDK8/cyclin C (Homo sapiens, UniProt P49336); assay: biochemical; conditions: read-out: % enzyme activity, 1 μM; Run 1, Run 2
[2] = target: T1, SNRK (Homo sapiens, UniProt Q9NRH2); conditions: 1 μM; Run 1, Run 2
T1 sequence (Q9NRH2 1-765): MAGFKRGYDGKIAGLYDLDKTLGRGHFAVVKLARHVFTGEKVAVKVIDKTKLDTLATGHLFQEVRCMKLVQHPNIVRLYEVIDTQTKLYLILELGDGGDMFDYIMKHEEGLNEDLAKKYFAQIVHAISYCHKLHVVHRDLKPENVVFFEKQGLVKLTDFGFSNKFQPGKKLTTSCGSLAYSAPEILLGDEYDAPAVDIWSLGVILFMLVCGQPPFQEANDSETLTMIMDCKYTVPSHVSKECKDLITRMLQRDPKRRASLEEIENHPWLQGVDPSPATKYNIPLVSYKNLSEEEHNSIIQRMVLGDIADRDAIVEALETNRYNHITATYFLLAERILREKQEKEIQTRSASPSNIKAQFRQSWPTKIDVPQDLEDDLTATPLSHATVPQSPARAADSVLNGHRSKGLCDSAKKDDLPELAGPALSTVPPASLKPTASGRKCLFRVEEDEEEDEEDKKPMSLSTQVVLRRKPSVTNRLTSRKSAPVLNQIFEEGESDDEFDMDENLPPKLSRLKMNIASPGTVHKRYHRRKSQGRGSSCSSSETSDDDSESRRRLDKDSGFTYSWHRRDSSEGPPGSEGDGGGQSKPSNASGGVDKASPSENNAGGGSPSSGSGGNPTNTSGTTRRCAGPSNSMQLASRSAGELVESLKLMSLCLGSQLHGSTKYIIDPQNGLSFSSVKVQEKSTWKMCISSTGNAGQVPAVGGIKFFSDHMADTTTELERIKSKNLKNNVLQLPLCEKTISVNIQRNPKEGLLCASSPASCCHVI

[3] = target: T2, TBK1 (Homo sapiens, UniProt Q9UHD2); assay: biochemical; conditions: read-out: % enzyme activity, 1 μM; Run 1, Run 2
T2 sequence (Q9UHD2 1-729): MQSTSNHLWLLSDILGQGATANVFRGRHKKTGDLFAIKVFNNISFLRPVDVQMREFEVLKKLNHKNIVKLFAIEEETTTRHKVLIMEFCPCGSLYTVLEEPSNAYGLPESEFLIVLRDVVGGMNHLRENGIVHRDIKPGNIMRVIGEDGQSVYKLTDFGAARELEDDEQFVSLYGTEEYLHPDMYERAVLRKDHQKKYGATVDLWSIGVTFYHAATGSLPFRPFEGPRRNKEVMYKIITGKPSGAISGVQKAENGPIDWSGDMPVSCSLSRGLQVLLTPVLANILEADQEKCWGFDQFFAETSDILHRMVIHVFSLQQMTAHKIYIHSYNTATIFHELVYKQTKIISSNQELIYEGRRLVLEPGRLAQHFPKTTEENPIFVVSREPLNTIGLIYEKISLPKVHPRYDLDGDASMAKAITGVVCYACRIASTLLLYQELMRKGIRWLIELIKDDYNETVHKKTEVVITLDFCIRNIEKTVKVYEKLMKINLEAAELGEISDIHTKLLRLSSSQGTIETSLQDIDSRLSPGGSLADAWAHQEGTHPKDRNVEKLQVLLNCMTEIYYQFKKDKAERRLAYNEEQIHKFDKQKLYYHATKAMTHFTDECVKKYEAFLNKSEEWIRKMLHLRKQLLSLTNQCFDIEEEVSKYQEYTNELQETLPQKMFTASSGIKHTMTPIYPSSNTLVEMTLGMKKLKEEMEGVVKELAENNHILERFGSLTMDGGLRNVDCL

[4] = target: PKCeta (Homo sapiens, UniProt P24723); conditions: 1 μM; Run 1, Run 2
[5] = mouse liver microsomal stability assay; assay type: in vitro ADME; conditions: male, CD-1, mouse, microsomes, pH 7.4, mouse liver microsomes, 60 min, 37 °C, read-out: MLM % Remaining at 1h
[6] = target: T3, TAOK2/TAO1 (Homo sapiens, UniProt Q9UL54); assay: biochemical; conditions: read-out: % enzyme activity, 1 μM; Run 1, Run 2
T3 sequence (Q9UL54 1-1235): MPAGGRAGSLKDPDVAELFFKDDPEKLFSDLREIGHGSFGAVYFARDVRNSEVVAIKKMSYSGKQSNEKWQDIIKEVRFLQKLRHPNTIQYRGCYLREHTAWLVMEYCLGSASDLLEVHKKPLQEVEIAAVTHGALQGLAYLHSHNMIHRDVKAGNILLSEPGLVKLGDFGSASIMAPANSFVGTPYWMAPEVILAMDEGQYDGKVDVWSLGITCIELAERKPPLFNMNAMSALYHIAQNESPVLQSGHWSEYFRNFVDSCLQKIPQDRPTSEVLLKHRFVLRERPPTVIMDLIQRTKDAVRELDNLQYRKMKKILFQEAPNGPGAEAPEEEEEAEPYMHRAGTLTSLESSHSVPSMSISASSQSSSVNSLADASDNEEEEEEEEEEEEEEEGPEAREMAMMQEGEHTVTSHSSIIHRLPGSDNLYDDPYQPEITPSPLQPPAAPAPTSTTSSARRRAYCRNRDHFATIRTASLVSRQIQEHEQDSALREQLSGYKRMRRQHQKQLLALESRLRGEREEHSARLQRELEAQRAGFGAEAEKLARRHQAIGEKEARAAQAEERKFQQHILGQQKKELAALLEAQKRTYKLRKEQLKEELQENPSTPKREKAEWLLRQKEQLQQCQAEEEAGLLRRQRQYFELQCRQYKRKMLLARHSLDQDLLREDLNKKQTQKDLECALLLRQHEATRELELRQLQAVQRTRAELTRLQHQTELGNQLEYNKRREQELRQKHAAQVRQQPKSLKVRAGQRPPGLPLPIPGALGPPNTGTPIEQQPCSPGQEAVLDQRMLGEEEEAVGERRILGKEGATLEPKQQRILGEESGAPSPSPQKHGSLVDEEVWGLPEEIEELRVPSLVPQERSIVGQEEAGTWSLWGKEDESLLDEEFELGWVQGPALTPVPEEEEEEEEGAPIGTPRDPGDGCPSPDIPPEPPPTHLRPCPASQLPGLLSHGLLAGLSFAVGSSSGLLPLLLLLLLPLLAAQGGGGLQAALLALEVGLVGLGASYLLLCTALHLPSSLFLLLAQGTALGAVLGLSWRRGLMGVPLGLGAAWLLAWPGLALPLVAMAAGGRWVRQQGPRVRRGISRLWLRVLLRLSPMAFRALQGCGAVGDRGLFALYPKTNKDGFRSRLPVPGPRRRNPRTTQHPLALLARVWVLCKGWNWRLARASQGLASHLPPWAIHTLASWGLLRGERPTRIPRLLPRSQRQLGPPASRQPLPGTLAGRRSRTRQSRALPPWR

[7] = target: DAPK2 (Homo sapiens, UniProt Q9UIK4); assay: biochemical; conditions: read-out: % enzyme activity, 1 μM; Run 1, Run 2
DAPK2, sequence (Q9UIK4 whole entry): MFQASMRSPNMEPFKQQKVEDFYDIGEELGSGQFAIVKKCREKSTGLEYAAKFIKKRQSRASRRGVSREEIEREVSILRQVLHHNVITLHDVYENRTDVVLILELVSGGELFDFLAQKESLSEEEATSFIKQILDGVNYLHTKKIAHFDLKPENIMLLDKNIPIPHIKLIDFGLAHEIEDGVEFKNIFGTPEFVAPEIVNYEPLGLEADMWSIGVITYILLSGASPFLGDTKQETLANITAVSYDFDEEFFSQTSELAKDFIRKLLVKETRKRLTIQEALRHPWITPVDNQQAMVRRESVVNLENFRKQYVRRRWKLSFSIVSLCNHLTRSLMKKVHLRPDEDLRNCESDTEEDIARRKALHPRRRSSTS

CDK8/cyclin C, sequence (P49336 whole entry): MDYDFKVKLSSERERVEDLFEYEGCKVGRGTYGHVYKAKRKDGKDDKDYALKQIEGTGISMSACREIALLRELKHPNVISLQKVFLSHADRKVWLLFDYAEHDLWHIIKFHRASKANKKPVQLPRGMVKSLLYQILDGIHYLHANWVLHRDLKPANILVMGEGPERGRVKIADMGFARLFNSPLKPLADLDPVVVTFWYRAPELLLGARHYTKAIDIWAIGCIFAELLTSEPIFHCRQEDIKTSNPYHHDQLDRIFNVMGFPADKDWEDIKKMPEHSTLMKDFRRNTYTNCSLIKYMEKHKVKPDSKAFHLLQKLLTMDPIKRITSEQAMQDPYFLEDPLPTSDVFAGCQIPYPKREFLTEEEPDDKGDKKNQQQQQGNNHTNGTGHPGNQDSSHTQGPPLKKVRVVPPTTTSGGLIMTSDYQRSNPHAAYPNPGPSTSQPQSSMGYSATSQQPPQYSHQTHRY
CDK8/cyclin C, sequence (P24863 whole entry partner): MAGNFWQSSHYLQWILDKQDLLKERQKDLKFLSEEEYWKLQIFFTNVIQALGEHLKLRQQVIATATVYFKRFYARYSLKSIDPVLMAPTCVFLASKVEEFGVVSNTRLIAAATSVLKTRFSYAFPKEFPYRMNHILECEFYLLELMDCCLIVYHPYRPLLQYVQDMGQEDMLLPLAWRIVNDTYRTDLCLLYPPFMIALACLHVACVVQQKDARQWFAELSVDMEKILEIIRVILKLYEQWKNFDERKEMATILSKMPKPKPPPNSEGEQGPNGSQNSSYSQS
PKCeta, sequence (P24723 whole entry): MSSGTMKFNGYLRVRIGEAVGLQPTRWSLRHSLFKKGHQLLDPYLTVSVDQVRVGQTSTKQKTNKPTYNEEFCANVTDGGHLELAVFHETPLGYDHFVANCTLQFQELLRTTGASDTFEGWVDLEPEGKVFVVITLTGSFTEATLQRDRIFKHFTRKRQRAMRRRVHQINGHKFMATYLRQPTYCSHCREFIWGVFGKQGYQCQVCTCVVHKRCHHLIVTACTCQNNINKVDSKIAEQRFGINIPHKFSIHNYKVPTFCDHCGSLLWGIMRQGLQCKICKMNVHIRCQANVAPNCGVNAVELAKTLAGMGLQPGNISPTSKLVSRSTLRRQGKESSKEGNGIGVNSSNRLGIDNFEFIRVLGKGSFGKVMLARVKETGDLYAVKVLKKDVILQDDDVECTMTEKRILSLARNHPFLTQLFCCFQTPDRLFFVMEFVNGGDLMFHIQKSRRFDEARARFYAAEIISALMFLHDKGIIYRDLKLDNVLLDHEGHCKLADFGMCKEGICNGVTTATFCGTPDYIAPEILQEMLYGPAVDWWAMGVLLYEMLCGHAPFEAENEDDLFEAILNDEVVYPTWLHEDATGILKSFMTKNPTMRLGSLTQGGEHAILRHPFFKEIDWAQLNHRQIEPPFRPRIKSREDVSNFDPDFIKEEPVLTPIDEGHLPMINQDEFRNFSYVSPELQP

With `COc1cc(-c2cncc(-c3ccc(N4C[C@@H](C)N(C)[C@@H](C)C4)cc3)c2C)cc(F)c1C(N)=O` [Compound 26c, 2-Fluoro-6-methoxy-4-(4-methyl-5-(4-((3R,5S)-3,4,5-trimethylpiperazin-1-yl)phenyl)pyridin-3-yl)benzamide] the remaining activity at 1 µM [1] was 93.1%, the “% enzyme activity” value [2] was 97.75% and the remaining activity at 1 µM [3] was 87.2%. For the same molecule, the “% enzyme activity” value [4] was 98.10%, the remaining at 1 h, 1 μM [5] was 48.7% and the remaining activity at 1 µM [6] was 101%. It also gave a remaining activity at 1 µM [7] of 100%.

For `COc1cc(-c2cncc(-c3ccc(N4CCN(C)CC4)cc3)c2C)cc(F)c1C(N)=O` [Compound 26a, 2-Fluoro-6-methoxy-4-(4-methyl-5-(4-(4-methylpiperazin-1-yl)phenyl)pyridin-3-yl)benzamide], the remaining activity at 1 µM [1] was 84.6%, the “% enzyme activity” value [2] was 104.94% and the remaining activity at 1 µM [3] was 93.6%. The “% enzyme activity” value [4] was 93.90%, the remaining at 1 h, 1 μM [5] was 54.6% and the remaining activity at 1 µM [6] was 88.6%. The remaining activity at 1 µM [7] was 103%.
